Measurements taken from US6156700A, “3-(1,2-Benzisothiazol- and isoxazol-5-yl)-2,4(1H,3H)-pyrimidinedione or thione and 3-(1,2-benzisothiazol- and isoxazol-5-yl)-4(3H)-pyrimidinone or thione herbicidal agents” (American Cyanmid Company, priority 1998, dated 2000).

Key:
[1] = test system: Lambsquarters, Common, Chenopodium album; experiment: Postemergence herbicidal evaluation, CHEAL; assay type: in vivo, L.
Method in brief: (§1)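 Visual 0–9 rating vs untreated control (stand, vigor, malformation, size, chlorosis, overall appearance), scored 4–5 wk post-spray. Two-week-old seedlings; compound in 50/50 acetone/water + 0.5% TWEEN 20, ~0.0157–0.500 kg/ha, 40 psi nozzle.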

[2] = test system: Soybean, Glycine max; experiment: Preemergence herbicidal evaluation, GLXMA; assay type: in vivo, (L.) Merr.; settings: 0.2500 kg/ha
Description: (§2) Results of herbicide evaluation are expressed on a rating scale (0-9). The scale is based upon a visual observation of plant stand, vigor, malformation, size, chlorosis and overall plant appearance as compared with a control.
The preemergence herbicidal activity of the test compounds of the present invention is exemplified by the following tests in which the seeds of a variety of monocotyledonous and dicotyledonous plants are separately mixed with potting soil and planted on top of approximately one inch of soil in separate pint cups. After planting, the cups are sprayed with the selected aqueous acetone solution containing test compound in sufficient quantity to provide the equivalent of about 0.0156 to 0.500 kg per hectare of test compound per cup. The treated cups are then placed on greenhouse benches, watered and cared for in accordance with conventional greenhouse procedures. From four to five weeks after treatment, the tests are terminated and each cup is examined and rated according to the rating system provided in Example 185.
The compounds evaluated are reported by compound number given in Example 185.

[3] = test system: Wheat, Winter, cv Riband, Triticum aestivum; experiment: Postemergence herbicidal evaluation, TRZAWR; assay type: in vivo
Method in brief: as §1

[4] = test system: ECHORC Watergrass (Calif.); experiment: Postemergence weed control, flooded paddy (Table IV); assay type: in vivo, Echinochloa oryzoides; set-up: scale not given here
Method in brief: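 Flooded greenhouse pots; water 1.5–3 cm over soil throughout. Weeds 3–5 cm, rice 1.5–2.5 leaf. Dose ~0.0313–0.500 kg/ha a.i., aqueous/acetone 50/50 v/v into flood water. Visual herbicidal rating at 3–4 wk.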

[5] = test system: CYPIR Rice Flatsedge; experiment: Preemergence weed control, flooded paddy (Table III); assay type: in vivo, Cyperus iria; set-up: scale not given here
Method in brief: (§3)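 Seeds or propagules sown in silt loam under 1.5 to 3 cm standing flood water; compound in 50/50 aqueous/acetone pipetted into the water at about 0.0313 to 0.500 kg/ha active ingredient. Greenhouse-held; herbicidal effect rated on a scale 3-4 weeks after treatment.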

[6] = test system: Soybean, Williams, Glycine max; experiment: Preemergence herbicidal evaluation, GLXMAW; assay type: in vivo, (L.) Merr. cv Williams; settings: 0.2500 kg/ha
Method in brief: (§4)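 Sow seeds in soil-filled cups; spray aqueous acetone compound solution at about 0.0156–0.500 kg/ha; keep on greenhouse benches with routine watering; after four to five weeks, rate visual injury 0–9 compared with control plants.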

[7] = test system: SAGPY Arrowhead (Pygmaea); experiment: Preemergence weed control, flooded paddy (Table III); assay type: in vivo, Sagittaria pygmaea; set-up: scale not given here
Method in brief: as §3

[8] = test system: Barnyardgrass, Echinochloa crus-galli; experiment: Preemergence herbicidal evaluation, ECHCG; assay type: in vivo, (L.) Beau; settings: 0.2500 kg/ha
Method in brief: as §4

[9] = test system: Galium, Galium aparine; experiment: Preemergence herbicidal evaluation, GALAP; assay type: in vivo; settings: 0.2500 kg/ha
Method in brief: as §4

[10] = test system: Barnyardgrass, Echinochloa crus-galli; experiment: Postemergence herbicidal evaluation, ECHCG; assay type: in vivo, (L.) Beau
Method in brief: as §1

[11] = test system: Corn, Field, Zea mays; experiment: Preemergence herbicidal evaluation, ZEAMX; assay type: in vivo, L.; settings: 0.2500 kg/ha
Method in brief: as §4

[12] = test system: ECHORC Watergrass (Calif.); experiment: Preemergence weed control, flooded paddy (Table III); assay type: in vivo, Echinochloa oryzoides; set-up: scale not given here
Method in brief: as §3

[13] = test system: Rice, Tebonnet, Oryza sativa; experiment: Postemergence herbicidal evaluation, ORYSAT; assay type: in vivo, (L.) Tebonnet
Method in brief: as §1

[14] = test system: Soybean, Williams, Glycine max; experiment: Postemergence herbicidal evaluation, GLXMAW; assay type: in vivo, (L.) Merr. cv Williams
Method in brief: as §1

[15] = test system: Soybean, Glycine max; experiment: Postemergence herbicidal evaluation, GLXMA; assay type: in vivo, (L.) Merr.; settings: 0.2500 kg/ha
Procedure: In the tests, seedling plants are grown in jiffy flats for about two weeks. The test compounds are dispersed in 50/50 acetone/water mixtures containing 0.5% TWEEN®20, a polyoxyethylene sorbitan monolaurate surfactant of Atlas Chemical Industries, in sufficient quantities to provide the equivalent of about 0.0157 kg to 0.500 kg per hectare of active compound when applied to the plants through a spray nozzle operating at 40 psi for a predetermined time. After spraying, the plants are placed on greenhouse benches and are cared for in accordance with conventional greenhouse procedures. From four to five weeks after treatment, the seedling plants are examined and rated according to the rating system set forth below. Where more than one test is involved for a given compound, the data are averaged.
as §2

[16] = test system: Morningglory, Ivyleaf, Ipomoea hederacea; experiment: Preemergence herbicidal evaluation, IPOHE; assay type: in vivo, (L.) Jacq.; settings: 0.2500 kg/ha
Method in brief: as §4

[17] = test system: Foxtail, Green, Setaria viridis; experiment: Preemergence herbicidal evaluation, SETVI; assay type: in vivo, (L.) Beau; settings: 0.2500 kg/ha
Method in brief: as §4

[18] = test system: Sicklepod, Cassia obtusifolia; experiment: Preemergence herbicidal evaluation, CASOB; assay type: in vivo, L.; settings: 0.2500 kg/ha
Method in brief: as §4

[19] = test system: Velvetleaf, Abutilon theophrasti; experiment: Preemergence herbicidal evaluation, ABUTH; assay type: in vivo, Medic.; settings: 0.2500 kg/ha
Method in brief: as §4

[20] = test system: Morningglory Spp., Ipomoea Spp.; experiment: Preemergence herbicidal evaluation, IPOSS; assay type: in vivo; settings: 0.2500 kg/ha
Method in brief: as §4

[21] = test system: Corn, Field, Zea mays; experiment: Postemergence herbicidal evaluation, ZEAMX; assay type: in vivo, L.
Method in brief: as §1

[22] = test system: Ragweed, Common, Ambrosia artemisifolia; experiment: Postemergence herbicidal evaluation, AMBEL; assay type: in vivo, L.
Method in brief: as §1

[23] = test system: Lambsquarters, Common, Chenopodium album; experiment: Preemergence herbicidal evaluation, CHEAL; assay type: in vivo, L.; settings: 0.2500 kg/ha
Method in brief: as §4

In the case of `COC(=O)COc1ccc(C)cc1-c1nsc2ccc(-n3c(=O)cc(C(F)(F)F)n(C)c3=O)cc12` [Compound 2, Methyl {{2-{5-[3,6-dihydro-3-methyl-4-(trifluoromethyl) -2,6-dioxo-1(2H)-pyrimidinyl]-1,2-benzisothiazol-3-yl]-p-tolyl}oxy}acetate], the “herbicide rating (0-9)” value ([1]; 0.0630 kg/ha) is reported as 9.0, the “herbicide rating (0-9)” value ([1]; 0.2500 kg/ha) is reported as 9.0 and the “herbicide rating (0-9)” value [2] is reported as 7.0. For the same compound, the “herbicide rating (0-9)” value ([3]; 0.0630 kg/ha) was 7.2, the “herbicide rating (0-9)” value ([3]; 0.2500 kg/ha) was 9.0 and the herbicidal effect rating ([4]; 0.1250 kg/ha) was 7.0. The herbicidal effect rating ([4]; 0.2500 kg/ha) was 9.0, the herbicidal effect rating ([4]; 0.5000 kg/ha) was 9.0 and the herbicidal effect rating ([5]; 0.0313 kg/ha) was 8.0. It also gave a herbicidal effect rating ([5]; 0.0625 kg/ha) of 9.0, a herbicidal effect rating ([5]; 0.1250 kg/ha) of 9.0 and a herbicidal effect rating ([5]; 0.2500 kg/ha) of 9.0. The herbicidal effect rating ([5]; 0.5000 kg/ha) was 9.0, the “herbicide rating (0-9)” value [6] was 8.5 and the herbicidal effect rating ([7]; 0.0313 kg/ha) was 0.0. The herbicidal effect rating ([7]; 0.0625 kg/ha) was 0.0, the herbicidal effect rating ([7]; 0.1250 kg/ha) was 2.0 and the herbicidal effect rating ([7]; 0.2500 kg/ha) was 4.0. The herbicidal effect rating ([7]; 0.5000 kg/ha) was 9.0, the “herbicide rating (0-9)” value [8] was 8.3 and the “herbicide rating (0-9)” value [9] was 9.0. For the same compound, the “herbicide rating (0-9)” value ([10]; 0.0630 kg/ha) was 9.0, the “herbicide rating (0-9)” value ([10]; 0.2500 kg/ha) was 9.0 and the “herbicide rating (0-9)” value [11] was 5.6. For the same compound, the herbicidal effect rating ([12]; 0.0313 kg/ha) was 9.0, the herbicidal effect rating ([12]; 0.0625 kg/ha) was 9.0 and the herbicidal effect rating ([12]; 0.1250 kg/ha) was 9.0. For the same compound, the herbicidal effect rating ([12]; 0.2500 kg/ha) was 9.0, the herbicidal effect rating ([12]; 0.5000 kg/ha) was 9.0 and the “herbicide rating (0-9)” value ([13]; 0.0630 kg/ha) was 7.8. The “herbicide rating (0-9)” value ([13]; 0.2500 kg/ha) was 9.0, the “herbicide rating (0-9)” value ([14]; 0.0630 kg/ha) was 8.8 and the “herbicide rating (0-9)” value [15] was 9.0. For the same compound, the “herbicide rating (0-9)” value [16] was 9.0, the “herbicide rating (0-9)” value [17] was 9.0 and the “herbicide rating (0-9)” value [18] was 9.0. The “herbicide rating (0-9)” value [19] was 9.0, the “herbicide rating (0-9)” value [20] was 9.0 and the “herbicide rating (0-9)” value ([21]; 0.0630 kg/ha) was 8.0. The “herbicide rating (0-9)” value ([21]; 0.2500 kg/ha) was 7.5, the “herbicide rating (0-9)” value ([22]; 0.0630 kg/ha) was 9.0 and the “herbicide rating (0-9)” value ([22]; 0.2500 kg/ha) was 9.0. The “herbicide rating (0-9)” value [23] was 9.0.

In the case of `Cc1nsc2ccc(-n3c(=O)cc(C(F)(F)F)n(C)c3=O)cc12` [Compound 6, 1-Methyl-3-(3-methyl-1,2-benzisothiazol-5-yl)-6-(trifluoromethyl)-2,4(1H,3H)-pyrimidinedione], the “herbicide rating (0-9)” value ([1]; 0.0630 kg/ha) is reported as 7.0, the “herbicide rating (0-9)” value ([1]; 0.2500 kg/ha) is reported as 9.0 and the “herbicide rating (0-9)” value [2] is reported as 9.0. The “herbicide rating (0-9)” value ([3]; 0.0630 kg/ha) was 1.5, the “herbicide rating (0-9)” value ([3]; 0.2500 kg/ha) was 5.0 and the herbicidal effect rating ([4]; 0.1250 kg/ha) was 9.0. The herbicidal effect rating ([4]; 0.2500 kg/ha) was 9.0, the herbicidal effect rating ([4]; 0.5000 kg/ha) was 9.0 and the herbicidal effect rating ([5]; 0.0625 kg/ha) was 9.0. For the same compound, the herbicidal effect rating ([5]; 0.1250 kg/ha) was 9.0, the herbicidal effect rating ([5]; 0.2500 kg/ha) was 9.0 and the herbicidal effect rating ([5]; 0.5000 kg/ha) was 9.0. It also gave a herbicidal effect rating ([7]; 0.0625 kg/ha) of 4.0, a herbicidal effect rating ([7]; 0.1250 kg/ha) of 7.0 and a herbicidal effect rating ([7]; 0.2500 kg/ha) of 7.0. The herbicidal effect rating ([7]; 0.5000 kg/ha) was 9.0, the “herbicide rating (0-9)” value [8] was 9.0 and the “herbicide rating (0-9)” value [9] was 9.0. For the same compound, the “herbicide rating (0-9)” value ([10]; 0.0630 kg/ha) was 1.5, the “herbicide rating (0-9)” value ([10]; 0.2500 kg/ha) was 6.0 and the “herbicide rating (0-9)” value [11] was 9.0. The herbicidal effect rating ([12]; 0.0625 kg/ha) was 6.0, the herbicidal effect rating ([12]; 0.1250 kg/ha) was 8.0 and the herbicidal effect rating ([12]; 0.2500 kg/ha) was 9.0. The herbicidal effect rating ([12]; 0.5000 kg/ha) was 9.0, the “herbicide rating (0-9)” value ([13]; 0.0630 kg/ha) was 1.8 and the “herbicide rating (0-9)” value ([13]; 0.2500 kg/ha) was 5.0. For the same compound, the “herbicide rating (0-9)” value ([14]; 0.0630 kg/ha) was 4.8, the “herbicide rating (0-9)” value ([14]; 0.2500 kg/ha) was 7.0 and the “herbicide rating (0-9)” value [15] was 6.0. The “herbicide rating (0-9)” value [17] was 9.0, the “herbicide rating (0-9)” value [18] was 9.0 and the “herbicide rating (0-9)” value [19] was 9.0. For the same compound, the “herbicide rating (0-9)” value [20] was 9.0, the “herbicide rating (0-9)” value ([21]; 0.0630 kg/ha) was 4.5 and the “herbicide rating (0-9)” value ([21]; 0.2500 kg/ha) was 3.5. For the same compound, the “herbicide rating (0-9)” value ([22]; 0.0630 kg/ha) was 6.5, the “herbicide rating (0-9)” value ([22]; 0.2500 kg/ha) was 9.0 and the “herbicide rating (0-9)” value [23] was 9.0.
